Assay results from paper PMC5951806, “Rapid labelling and covalent inhibition of intracellular native proteins using ligand-directed N-acyl-N-alkyl sulfonamide” (Nature Communications, 2018).

Assays:
Assay in all cases: TMT LC-MSMS of 11-labelled proteins
Type in all cases: cell-based
[1] = target: Tubulin beta-4B chain (TUBB4B) (Homo sapiens, UniProt P68371)
[2] = target: Cytochrome b-c1 complex subunit 1, mitochondrial (UQCRC1) (Homo sapiens, UniProt P31930)
[3] = target: T1, prenylcysteine oxidase 1 (PCYOX1) (Homo sapiens, UniProt Q9UHG3)
T1 sequence (Q9UHG3 28-505): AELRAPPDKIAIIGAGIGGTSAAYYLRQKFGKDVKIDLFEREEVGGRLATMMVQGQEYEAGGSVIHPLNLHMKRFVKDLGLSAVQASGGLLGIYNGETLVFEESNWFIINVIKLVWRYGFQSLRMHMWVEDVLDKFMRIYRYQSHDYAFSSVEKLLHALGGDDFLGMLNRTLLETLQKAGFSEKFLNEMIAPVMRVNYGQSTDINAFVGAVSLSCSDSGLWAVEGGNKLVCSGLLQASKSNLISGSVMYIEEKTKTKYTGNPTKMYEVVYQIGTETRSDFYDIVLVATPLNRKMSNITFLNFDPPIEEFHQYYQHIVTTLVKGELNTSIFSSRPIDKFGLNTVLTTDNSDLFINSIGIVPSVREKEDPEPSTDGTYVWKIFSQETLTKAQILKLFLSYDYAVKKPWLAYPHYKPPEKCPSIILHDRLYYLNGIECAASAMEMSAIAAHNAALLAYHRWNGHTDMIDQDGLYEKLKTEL

[4] = sheet Exp1, SKBR3 cells, 11 0.5 µM 3 h vs DMSO
[5] = sheet Exp1, SKBR3 cells, 11 0.5 µM 3 h vs with PU-H71 10 µM
[6] = sheet Merged, SKBR3 cells, 11 0.5 µM 3 h vs DMSO
[7] = sheet Merged, SKBR3 cells, 11 0.5 µM 3 h vs with PU-H71 10 µM

Tubulin beta-4B chain (TUBB4B), sequence (P68371 whole entry): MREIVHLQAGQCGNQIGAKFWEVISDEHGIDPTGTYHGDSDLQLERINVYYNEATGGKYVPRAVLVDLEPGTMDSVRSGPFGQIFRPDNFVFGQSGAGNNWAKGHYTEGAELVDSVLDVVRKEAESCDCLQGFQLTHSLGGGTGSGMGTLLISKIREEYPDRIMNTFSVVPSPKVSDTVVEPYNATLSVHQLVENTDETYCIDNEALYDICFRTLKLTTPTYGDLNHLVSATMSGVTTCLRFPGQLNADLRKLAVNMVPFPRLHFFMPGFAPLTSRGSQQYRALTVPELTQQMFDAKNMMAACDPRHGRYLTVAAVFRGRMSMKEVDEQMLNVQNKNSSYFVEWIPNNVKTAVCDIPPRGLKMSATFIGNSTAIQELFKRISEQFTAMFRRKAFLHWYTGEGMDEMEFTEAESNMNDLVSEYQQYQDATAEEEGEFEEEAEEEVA
Tubulin beta-4B chain (TUBB4B), sequence (P68363 whole entry partner): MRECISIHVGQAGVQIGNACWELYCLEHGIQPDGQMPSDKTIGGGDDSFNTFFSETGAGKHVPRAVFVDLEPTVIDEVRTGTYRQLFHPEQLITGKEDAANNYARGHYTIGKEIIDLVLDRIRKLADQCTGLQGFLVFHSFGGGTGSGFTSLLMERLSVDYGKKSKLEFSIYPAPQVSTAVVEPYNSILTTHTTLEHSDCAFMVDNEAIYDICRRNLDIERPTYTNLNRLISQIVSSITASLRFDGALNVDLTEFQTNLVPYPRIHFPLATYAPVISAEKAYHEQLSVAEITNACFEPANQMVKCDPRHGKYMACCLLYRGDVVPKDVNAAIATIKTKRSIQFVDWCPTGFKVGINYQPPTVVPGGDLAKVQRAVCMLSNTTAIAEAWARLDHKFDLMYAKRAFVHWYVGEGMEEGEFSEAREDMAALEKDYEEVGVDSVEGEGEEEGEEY

Abundance Ratio: (11) / (11 with PU-H71) ([1]; Exp3, TUBB4B): 1.068
Abundance Ratio: (11) / (DMSO) ([1]; Exp3, TUBB4B): 3.456
Abundances (Grouped): 11 ([1]; Exp3, TUBB4B): 287.5
Abundances (Grouped): 11 with PU-H71 ([1]; Exp3, TUBB4B): 269.1
Abundance Ratio: (11) / (DMSO) [1, 4]: 3.652
Abundance Ratio: (11) / (11 with PU-H71) [1, 5]: 1.046
Abundance Ratio: (11) / (11 with PU-H71) ([1]; sheet Exp2, TUBB4B): 0.891
Abundance Ratio: (11) / (DMSO) ([1]; sheet Exp2, TUBB4B): 2.612
Abundances (Grouped): 11 ([1]; sheet Exp2, TUBB4B): 209.5
Abundances (Grouped): 11 with PU-H71 ([1]; sheet Exp2, TUBB4B): 235
Abundance Ratio: (11) / (DMSO) [1, 6]: 3.477
Abundance Ratio: (11) / (11 with PU-H71) [1, 7]: 1.054
Abundance Ratio: (11) / (11 with PU-H71) ([2]; Exp3, UQCRC1): 0.7
Abundance Ratio: (11) / (DMSO) ([2]; Exp3, UQCRC1): 3
Abundances (Grouped): 11 ([2]; Exp3, UQCRC1): 50.1
Abundances (Grouped): 11 with PU-H71 ([2]; Exp3, UQCRC1): 71.6
Abundance Ratio: (11) / (11 with PU-H71) ([2]; sheet Exp2, UQCRC1): 0.772
Abundance Ratio: (11) / (DMSO) ([2]; sheet Exp2, UQCRC1): 3.724
Abundances (Grouped): 11 ([2]; sheet Exp2, UQCRC1): 60.7
Abundances (Grouped): 11 with PU-H71 ([2]; sheet Exp2, UQCRC1): 78.6
Abundance Ratio: (11) / (DMSO) [2, 6]: 3.342
Abundance Ratio: (11) / (11 with PU-H71) [2, 7]: 0.735
Abundance Ratio: (11) / (11 with PU-H71) ([3]; Exp3, PCYOX1): 0.713
Abundance Ratio: (11) / (DMSO) ([3]; Exp3, PCYOX1): 1.251
Abundances (Grouped): 11 ([3]; Exp3, PCYOX1): 54.9
Abundances (Grouped): 11 with PU-H71 ([3]; Exp3, PCYOX1, with PU-H71): 77
Abundance Ratio: (11) / (DMSO) [3, 4]: 1.831
Abundance Ratio: (11) / (11 with PU-H71) [3, 5]: 0.86
Abundance Ratio: (11) / (DMSO) [3, 6]: 1.513
Abundance Ratio: (11) / (11 with PU-H71) [3, 7]: 0.783
Compound: CC(=O)Oc1ccc2c(c1)Oc1cc(OC(C)=O)ccc1C21OC(=O)c2cc(C(=O)NCCOCCOCCNC(=O)CCCC(=O)N(CC#N)S(=O)(=O)c3ccc(C(=O)NCCCn4c(Sc5cc6c(cc5I)OCO6)nc5c(N)ncnc54)cc3)ccc21 [compound 11]
